Measurements: patent US20150182482A1, “EPROTIROME FOR USE IN THE PREVENTION AND/OR TREATMENT OF HAIR DISORDERS AND COMPOSITIONS THEREOF” (DR. AUGUST WOLFF GMBH & CO. KG ARZNEIMITTEL, priority 2012, published 2015)
Entries after “also recorded” stand apart in the source; their conditions may differ. Where two headings read alike, the source gives them in different places. Blank lines part the entries; values can stand above or below the compound they belong to.

How the values were obtained:
[1] = tested on: human scalp hair follicles; assay: Hair shaft elongation in human hair follicle organ culture (Philpott model); format: cell-based
Procedure: (§1) Normal human scalp skin was obtained from women undergoing routine face-lift surgery after informed consent.
(§2) Mircodissected anagen VI hair follicles in 3 or 4 groups (3 HFs/well) were cultured at 6 days in a 24-well plate with 500 μl Williams E medium (Biochrom) supplemented with 100 IU/ml penicillin, 10 μg/ml streptomycin (Gibco), 10 μg/ml insulin (Sigma), 10 ng/ml hydrocortisone (Sigma) and 2 mmol/1 L-glutamine (Invitrogen).
Hair shaft length measurements of HFs were performed every second day on individual HFs using a Zeiss inverted binocular microscope with an eyepiece measuring graticule.

[2] = tested on: human scalp hair follicles; assay: HF cycle staging in human hair follicle organ culture; format: cell-based; details: for hair cycle staging, macroscopic and microscopic, overall comparison: summary of the examples
Procedure: as §1
(§3) Test system: Philpott model (Philpott et al., J. Cell. Mol. Life Sci., 1990, 97: 463-471)
as §2
(§4) Eprotirome, TRIAC, PF-277343 (1 pM, 100 pM) or vehicle were administered once for each change of medium (i.e. every 48 h).
(§5) Anagen HFs and HFs were immediately embedded in Shandon Cryomatrix and snap frozen in liquid nitrogen. Six longitudinal sections of HFs were processed for immunohistological stainings.
HF cycle staging was carried out according to defined morphological criteria, and the percentage of HFs in anagen and early, mid, or late catagen was determined.

[3] = tested on: human scalp hair follicles; assay: Hair pigmentation, quantitative Masson-Fontana melanin staining of cultured hair follicles; format: cell-based; details: for melanin content, overall comparison: summary of the examples
Procedure: as §1, §3, §2, §4, §5
For histochemical visualization of melanin, Masson-Fontana staining was performed on frozen sections. Melanin was stained as brown dots and the degree of pigmentation was assessed by quantitative Masson-Fontana as described (Ito et al., Br. J. Dermatol, 2005, 152: 623-631). This method is a very sensitive and reliable indicator of changes in melanin synthesis, as shown by standard tyrosinase expression and enzyme activity assays (Kauser et al, FASEB J. 2006, 20:882-95). Staining intensity was analyzed in a defined reference region of the HF pigmentary unit and, using the ImageJ software (National Institute of Health).

[4] = tested on: tyrosinase activity of hair follicles; assay: Tyrosinase activity of cultured hair follicles; format: cell-based, human
Procedure: as §1, §3, §2, §4, §5

[5] = tested on: hair matrix keratinocytes; assay: Ki-67/TUNEL double staining, proliferation and apoptosis measurements; format: cell-based, human
Procedure: as §1, §2, §5
To evaluate apoptotic cells in co-localization with a proliferation marker Ki-67, a Ki-67/terminal dUTP nick-end labelling (TUNEL) double-staining method was used. […] TUNEL-positive cells were visualized by an antidigoxigenin fluorescein isothiocyanate-conjugated antibody (ApopTag kit), whereas Ki-67 was detected by a rhodamine-labelled goat antimouse antibody (Jackson ImmunoResearch, West Grove, Pa.). Negative controls were performed by omitting terminal deoxynucleotidyl transferase and the Ki-67 antibody. Counterstaining was performed with 4′,6-diamidino-2-phenylindole (DAPI) (Roche Molecular Biochemicals GmbH, Mannheim, Germany). Quantitative immunohistomorphometry was performed; Ki-67-, TUNEL-, or DAPI-positive cells were counted in a previously defined reference region of the HF matrix and epidermis, and the percentage of Ki-67/TUNEL-positive cells was determined.

[6] = tested on: MTCO1; assay: MTCO1 protein expression (immunoreactivity) in cultured hair follicles; format: cell-based, human
Procedure: as §1, §3, §2, §4, §5

[7] = tested on: TGFβ2; assay: TGFβ2 immunoreactivity in cultured hair follicles; format: cell-based, human
Procedure: as §1, §3, §2, §4, §5

[8] = tested on: hair growth; details: mouse; cited from earlier work
[9] = tested on: hair growth; details: monkey; cited from earlier work
[10] = tested on: alopecia areata; details: topical; cited from earlier work
[11] = tested on: outer root sheath cells, dermal papilla cells, and fibrous sheath cells of hair follicles; details: all these types of cells, significantly; cited from earlier work
[12] = tested on: human hair follicles; details: physiological level of free T3; cited from earlier work
[13] = tested on: SKH-1 mice; details: topical; cited from earlier work
[14] = tested on: CD rats; details: topical; cited from earlier work
[15] = tested on: human hair follicles; details: cited from earlier work
[16] = Stability; format: physicochemical
[17] = Penetration in human skin; format: in vitro ADME
[18] = cited from earlier work
[19] = occipital scalp HFs, person two, 6 days culture
[20] = person two, after 6 days, macroscopically and microscopically
[21] = person two, 100 pM, anagen HFs and all HFs

- tyrosinase activity ([4]; person three, 100 pM, anagen HFs and all HFs): slightly upregulated
- tyrosinase activity upregulation, significance ([4]; person three, 100 pM, only anagen HFs): significant
SMILES: Cc1cc(-n2ncc(=O)[nH]c2=O)cc(C)c1Oc1ccc(O)c(Cc2ccc(F)cc2)c1 [PF-277343]
- hair shaft elongation ([1]; occipital scalp HFs, person three, 1 pM): slight (not significant) tendency towards inhibition
- hair shaft elongation, overall comparison ([1]; summary of the examples): tendency of a slight inhibition
- macroscopic HF assessment (hair cycle staging) ([2]; person three, 1 pM): prematurely induces catagen
- quantitative hair cycle histomorphometry ([2]; person three, 1 pM and 100 pM): promoted premature catagen development
- hair cycle staging, macroscopic and microscopic, overall comparison [2]: caused hair follicles to enter the catagen phase prematurely
- melanisation ([3]; person three, 1 pM and 100 pM, all HFs): significantly decreased
- melanin production ([3]; person three, 100 pM, only anagen HFs (significant)): strong reduction
- melanin content, overall comparison [3]: decrease in melanin content
- proliferation (Ki-67) of hair matrix keratinocytes ([5]; person three): did not show effects
- apoptosis (TUNEL) ([5]; person three, 100 pM): slightly inhibited (not significant)
- MTCO1 protein expression ([6]; person three): no significant change
- TGFβ2 immunoreactivity ([7]; person three, 100 pM concentration group): significantly reduced
- efficacy in hair growth model [8]: efficacious
- efficacy in hair growth model [9]: efficacious

SMILES: N[C@@H](Cc1cc(I)c(Oc2ccc(O)c(I)c2)c(I)c1)C(=O)O [T3, 3,5,3′-triiodo-L-thyronine]
- efficacy versus placebo [10]: not more effective than placebo
- safety [10]: safe
- proliferation and/or metabolism of hair follicle cell types [11]: stimulated
- human hair survival in vitro [12]: significantly enhanced
- epidermal proliferation, dermal thickening, and hair growth [13]: stimulate
- epidermal proliferation, dermal thickening, and hair growth [14]: stimulate
- anagen duration [15]: prolong
- apoptosis of hair matrix keratinocytes (Ki-67/TUNEL staining) [15]: inhibited
- hair shaft elongation in vitro [15]: did not translate to a significantly altered hair shaft elongation
- melanin synthesis in human hair follicles [15]: stimulate

SMILES: N[C@@H](Cc1cc(I)c(Oc2cc(I)c(O)c(I)c2)c(I)c1)C(=O)O [T4, 3,5,3′,5′-tetraiodo-L-thyronine]
- anagen duration [15]: prolong
- apoptosis of hair matrix keratinocytes (Ki-67/TUNEL staining) [15]: inhibited
- hair matrix keratinocyte proliferation (Ki-67/TUNEL staining) [15]: stimulated
- hair shaft elongation in vitro [15]: did not translate to a significantly altered hair shaft elongation
- melanin synthesis in human hair follicles [15]: stimulate

SMILES: O=C(O)Cc1cc(I)c(Oc2ccc(O)c(I)c2)c(I)c1 [TRIAC, Triiodothyroacetic Acid]
- hair shaft elongation (inhibition), significance ([1]; occipital scalp HFs, person two, 1 pM): significant effect
- hair shaft elongation [1, 19]: slight inhibition
- anagen (prolongation) [2, 20]: prolonged anagen
- catagen development [2, 20]: inhibited catagen development
- hair cycle staging, macroscopic and microscopic, overall comparison [2]: able to prolong anagen and to inhibit catagen development
- hair follicle melanin content ([3]; person two, all HFs): No significant effects
- melanin content, overall comparison [3]: no effects
- tyrosinase activity ([4]; person two, all HFs): downregulated
- tyrosinase activity downregulation, significance ([4]; person two, all HFs, 0.1 pM and 1 pM groups): significant
- apoptosis (TUNEL) ([5]; person two): inhibited (not significant)
- proliferation (Ki-67) of hair matrix keratinocytes ([5]; person two): slightly upregulated (not significant)
- MTCO1 protein expression ([6]; person two): no significant change
- TGFβ2 immunoreactivity reduction, significance ([7]; person two, 1 pM and 100 pM concentration groups): significant effect
- TGFβ2 immunoreactivity ([7]; person two, all concentrations): reduced
- stability [16]: low stability
- penetration in human skin [17]: inferior penetration

- tyrosinase activity ([4]; person one, 100 pM group): upregulated
- tyrosinase activity upregulation, significance ([4]; person one, 100 pM, all HFs): significant
- tyrosinase activity [4, 21]: slightly upregulated
- tyrosinase activity, overall ([4]; summary of the examples): upregulation
SMILES: CC(C)c1cc(Oc2c(Br)cc(NC(=O)CC(=O)O)cc2Br)ccc1O [eprotirome, 3-[[3,5-dibromo-4-[4-hydroxy-3-(1-methylethyl)phenoxy]phenyl]amino]-3-oxo-propanoic acid]
- hair shaft elongation ([1]; occipital scalp HFs, person one, both doses (1 pM, 100 pM)): slightly stimulated
- hair shaft elongation [1, 19]: did not significantly affect
- duration of anagen, macroscopically ([2]; person one): no major effect
- hair cycle histomorphometry ([2]; person one): clear anagen-prolonging effect
- number of anagen HFs [2, 20]: significantly increased
- number of catagen HFs [2, 20]: decreased
- hair cycle staging, macroscopic and microscopic, overall comparison [2]: able to prolong anagen and to inhibit catagen development; also recorded: clearly prolongs anagen
- melanin content ([3]; person one, 100 pM, anagen HFs and all HFs): slightly increased
- melanin content increase, significance ([3]; person one, 100 pM, only anagen HFs): significant
- melanisation [3, 21]: slightly increased
- melanin content, overall comparison [3]: increased melanin content
- proliferation of the hair matrix keratinocytes (Ki-67) ([5]; person one, 100 pM): increased proliferation
- apoptosis (TUNEL) ([5]; person two): no change
- proliferation (Ki-67) of hair matrix keratinocytes ([5]; person two): tendentially upregulated
- proliferation of hair matrix keratinocytes, overall ([5]; summary of the examples): increased proliferation
- MTCO1 immunoreactivity ([6]; person one): significantly up-regulates
- MTCO1 protein expression ([6]; person two): no significant change
- TGFβ2 immunoreactivity ([7]; person one): significantly reduced
- TGFβ2 immunoreactivity reduction, concentration dependence ([7]; person one, 100 pM): strongest effect
- TGFβ2 immunoreactivity ([7]; person two, 1 pM concentration group): significantly reduced
- expression of TGFβ2, overall ([7]; summary of the examples): significant reduced expression
- effects on the heart ([18]; clinical trial in humans): did not provoke detectable effects
- safety and tolerability ([18]; clinical trial in humans): safe and well tolerated
- lowering of total and LDL cholesterol levels ([18]; moderately overweight and hypercholesterolemic subjects): up to 40%
